Measurements as given in patent publication US20240287138A1, “CYCLIC PEPTIDES FOR INHIBITING TNF RECEPTOR 1 ACTIVITY” (Merck Sharp & Dohme LLC, priority 2023, published 2024).
Numbered stars: 1 amine (or outer) side, 2 acyl side, 3 side chain; on linkers, the order of the positions; unused ones are H or OH. Square brackets hold non-standard residues; d marks the D form. Peptide text beside a SMILES is read from it. * marks the point of attachment. Trp(βS-Me,7-OMe) = COc1cccc2c([C@H](C)[C@H](N)C(=O)O)c[nH]c12; Ala(indazol-1-yl) = N[C@@H](Cn1ncc2ccccc21)C(=O)O; Trp(7-CN) = N#Cc1cccc2c(C[C@H](N)C(=O)O)c[nH]c12; Trp(7-Cl) = N[C@@H](Cc1c[nH]c2c(Cl)cccc12)C(=O)O; Phe(4-CONH2) = NC(=O)c1ccc(C[C@H](N)C(=O)O)cc1; Phe(4-COOH) = N[C@@H](Cc1ccc(C(=O)O)cc1)C(=O)O; 4Pal(3S-Me) = C[C@@H](c1ccncc1)[C@H](N)C(=O)O; Pip(5R-OH) = O=C(O)[C@@H]1CC[C@@H](O)CN1; X1 = O=C([C@@H]1CC[C@H](N[*:1])C1)[*:2]; Pip(4-aza) = O=C(O)[C@@H]1CNCCN1; 4Pal = N[C@@H](Cc1ccncc1)C(=O)O; Abu(4-CN) = N#CCC[C@H](N)C(=O)O; NMeE = CN[C@@H](CCC(=O)O)C(=O)O; dHyp = O=C(O)[C@H]1C[C@H](O)CN1; Gly(N-CH2CH2OH) = O=C(O)CNCCO; Ahp(2) = CCCCC[C@H](N)C(=O)O; αMeS = C[C@](N)(CO)C(=O)O; Carboxymethyl = O=C(O)C*; Nle = CCCC[C@H](N)C(=O)O; Sar = CNCC(=O)O

These compounds were tested against T1, TNFα-induced NF-κB signal transduction pathway (TNFR1 signaling) in THP-1 cells (Homo sapiens, UniProt P19438) (assay: THP-1 Lucia NF-κB reporter cell assay, inhibition of TNFα-induced NF-κB signaling). Settings: THP-1 NF-κB Lucia reporter cells, 10 ng/mL TNFα, 16-18 h, secreted luciferase; read-out: THP-1 IC50.
T1 sequence (P19438 30-455): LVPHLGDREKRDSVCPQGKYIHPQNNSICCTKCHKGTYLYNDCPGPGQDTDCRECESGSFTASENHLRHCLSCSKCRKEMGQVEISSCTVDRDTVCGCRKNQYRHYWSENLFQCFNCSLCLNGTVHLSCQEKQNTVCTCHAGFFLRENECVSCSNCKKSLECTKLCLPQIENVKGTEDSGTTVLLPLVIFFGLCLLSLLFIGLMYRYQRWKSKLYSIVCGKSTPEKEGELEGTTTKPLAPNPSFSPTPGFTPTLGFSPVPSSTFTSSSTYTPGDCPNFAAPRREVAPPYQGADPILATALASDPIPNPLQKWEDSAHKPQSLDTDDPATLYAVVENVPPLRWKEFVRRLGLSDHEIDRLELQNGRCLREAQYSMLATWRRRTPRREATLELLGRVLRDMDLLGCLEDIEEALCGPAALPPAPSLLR
Type: cell-based
Procedure, shortened: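 THP-1 Lucia NF-κB cells, 20k/well, no selection antibiotics; peptide pre-inc 1 h 37 °C; + recombinant human TNFα 10 ng/mL final; o.n.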
For CCCCC[C@@H]1NC(=O)[C@@H]2CC[C@@H](C2)NC(=O)[C@H]([C@@H](C)c2c[nH]c3c(OC)cccc23)NC(=O)CN(C)C(=O)[C@H](Cc2ccc(C(N)=O)cc2)NC(=O)[C@H](Cc2ccc(C(N)=O)cc2)NC(=O)[C@](C)(CO)NC(=O)[C@H](Cc2c[nH]c3c(C#N)cccc23)NC(=O)[C@H](Cc2ccc(C(=O)O)cc2)NC(=O)[C@H](CC(N)=O)NC(=O)[C@H]2C[C@H](O)CN2C(=O)[C@H](Cc2c[nH]c3ccccc23)NC(=O)[C@H](CCC(N)=O)NC(=O)[C@H]([C@@H](C)c2ccncc2)NC1=O [SEQ ID NO. 70] (cyclo([Ahp(2)][4Pal(3S-Me)]QW[dHyp]N[Phe(4-COOH)][Trp(7-CN)][αMeS][Phe(4-CONH2)][Phe(4-CONH2)][Sar][Trp(βS-Me,7-OMe)][X1])), the IC50 was 0.9 nM. CCCC[C@@H]1NC(=O)[C@@H]2CC[C@@H](C2)NC(=O)[C@H]([C@@H](C)c2c[nH]c3c(OC)cccc23)NC(=O)CN(C)C(=O)[C@H](Cc2ccc(O)cc2)NC(=O)[C@H](Cc2ccc(C(=O)O)cc2)NC(=O)[C@](C)(CO)NC(=O)[C@H](Cc2c[nH]c3c(Cl)cccc23)NC(=O)[C@H](Cc2ccncc2)NC(=O)[C@H](CC(N)=O)NC(=O)CN(CCO)C(=O)[C@H](Cc2c[nH]c3ccccc23)NC(=O)[C@@H]2CNCCN2C(=O)[C@H](Cc2ccncc2)NC1=O [SEQ ID NO. 72] (cyclo([4Pal][Trp(7-Cl)][αMeS][Phe(4-COOH)]Y[Sar][Trp(βS-Me,7-OMe)][X1][Nle][4Pal][Pip(4-aza)]W[Gly(N-CH2CH2OH)]N)) was tested, and the IC50 was 0.8 nM. Compound CCCC[C@@H]1NC(=O)[C@@H]2CC[C@@H](C2)NC(=O)[C@H]([C@@H](C)c2c[nH]c3c(OC)cccc23)NC(=O)CN(C)C(=O)[C@H](Cc2ccc(O)cc2)NC(=O)[C@H](Cc2ccc(C(N)=O)cc2)NC(=O)[C@](C)(CO)NC(=O)[C@H](Cc2c[nH]c3c(Cl)cccc23)NC(=O)[C@H](Cc2ccncc2)NC(=O)[C@H](CC(N)=O)NC(=O)[C@H](CCC(=O)O)N(C)C(=O)[C@H](Cn2ncc3ccccc32)NC(=O)[C@@H]2CC[C@@H](O)CN2C(=O)[C@H](Cc2ccncc2)NC1=O [SEQ ID NO. 74] (cyclo([4Pal][Trp(7-Cl)][αMeS][Phe(4-CONH2)]Y[Sar][Trp(βS-Me,7-OMe)][X1][Nle][4Pal][Pip(5R-OH)][Ala(indazol-1-yl)][NMeE]N)) has an IC50 of 0.5 nM. Compound CCCCC[C@@H]1NC(=O)[C@@H]2CC[C@@H](C2)NC(=O)[C@H]([C@@H](C)c2c[nH]c3c(OC)cccc23)NC(=O)CN(C)C(=O)[C@H](Cc2ccc(C(N)=O)cc2)NC(=O)[C@H](Cc2ccc(C(N)=O)cc2)NC(=O)[C@](C)(CO)NC(=O)[C@H](Cc2c[nH]c3c(C#N)cccc23)NC(=O)[C@H](Cc2ccc(C(=O)O)cc2)NC(=O)[C@H](CC(N)=O)NC(=O)[C@H]2C[C@H](O)CN2C(=O)[C@H](Cc2c[nH]c3ccccc23)NC(=O)[C@H](CCC#N)NC(=O)[C@H]([C@@H](C)c2ccncc2)NC1=O [SEQ ID NO. 79] (cyclo([Ahp(2)][4Pal(3S-Me)][Abu(4-CN)]W[dHyp]N[Phe(4-COOH)][Trp(7-CN)][αMeS][Phe(4-CONH2)][Phe(4-CONH2)][Sar][Trp(βS-Me,7-OMe)][X1])) has an IC50 of 1.3 nM. In the case of CCCC[C@@H]1NC(=O)[C@@H]2CC[C@@H](C2)NC(=O)[C@H]([C@@H](C)c2c[nH]c3c(OC)cccc23)NC(=O)CN(C)C(=O)[C@H](Cc2ccc(O)cc2)NC(=O)[C@H](Cc2ccc(OCC(=O)O)cc2)NC(=O)[C@](C)(CO)NC(=O)[C@H](Cc2c[nH]c3c(Cl)cccc23)NC(=O)[C@H](Cc2ccncc2)NC(=O)[C@H](CC(N)=O)NC(=O)[C@H](CCC(=O)O)N(C)C(=O)[C@H](Cc2c[nH]c3ccccc23)NC(=O)[C@@H]2CNCCN2C(=O)[C@H](Cc2ccncc2)NC1=O [SEQ ID NO. 80] (cyclo([4Pal][Trp(7-Cl)][αMeS]Y(Carboxymethyl)Y[Sar][Trp(βS-Me,7-OMe)][X1][Nle][4Pal][Pip(4-aza)]W[NMeE]N)), the IC50 is reported as 1.2 nM. For CCCC[C@@H]1NC(=O)[C@@H]2CC[C@@H](C2)NC(=O)[C@H]([C@@H](C)c2c[nH]c3c(OC)cccc23)NC(=O)CN(C)C(=O)[C@H](Cc2ccc(C(=O)O)cc2)NC(=O)[C@H](Cc2ccc(C(N)=O)cc2)NC(=O)[C@](C)(CO)NC(=O)[C@H](Cc2c[nH]c3c(Cl)cccc23)NC(=O)[C@H](Cc2ccncc2)NC(=O)[C@H](CC(N)=O)NC(=O)[C@H]2C[C@H](O)CN2C(=O)[C@H](Cc2c[nH]c3ccccc23)NC(=O)[C@@H]2CNCCN2C(=O)[C@H](Cc2ccncc2)NC1=O [SEQ ID NO. 83] (cyclo([4Pal][Trp(7-Cl)][αMeS][Phe(4-CONH2)][Phe(4-COOH)][Sar][Trp(βS-Me,7-OMe)][X1][Nle][4Pal][Pip(4-aza)]W[dHyp]N)), the IC50 was 0.6 nM.
